Laboratory results as given in patent US10905118B2, “Triscationic amphiphile compounds, compositions, and methods for making same” (James Madison Innovations, Inc., priority 2014, dated 2021).
In brackets after ≈: the same amount, converted by molar mass.

Key:
[1] = test system: Bacillus cereus; assay: Minimum inhibitory concentration, B. cereus; assay type: cell-based; conditions: Mueller-Hinton Broth, 37° C., 72 h
Procedure: (§1) The MIC values of all compounds from both double-tailed series were determined for four Gram-positive (Staphylococcus aureus, Enterococcus faecalis, Streptococcus agalactiae, and Bacillus cereus) and two Gram-negative (Escherichia coli and Pseudomonas aeruginosa) strains, which are shown in Table 3.
(§2) The Gram-positive bacterial strains used tested were Staphylococcus aureus subsp. aureus ATCC® 29213™, Enterococcus faecalis ATCC® 29212™, Bacillus cereus, and Streptococcus agalactiae J48.^58 The Gram-negative bacterial strains used were Escherichia coli ATCC® 25922™ and Pseudomonas aeruginosa ATCC® 27853™. All strains were grown in 1× Mueller-Hinton Broth at 37° C. for 12-24 h. For the MIC and combination studies, bacterial suspensions were prepared by diluting overnight cultures to 5×10^6 CFU/mL in 2× Mueller-Hinton Broth, so that when amphiphile solutions are added the final broth strength is 1×.
(§3) The methods used to determine the MIC and MBC were performed as previously described and followed the standards set forth by the Clinical and Laboratory Standards Institute (See Ladow, J. E.; Warnock, D. C.; Hamill, K. M.; Simmons, K. L.; Davis, R. W.; Schwantes, C. R.; Flaherty, D. C.; Willcox, J. A. L.; Wilson-Henjum, K.; Caran, K. L.; Minbiole, K. P. C.; Seifert, K. Bicephalic amphiphile architecture affects antibacterial activity. Eur. J. Med. Chem. 2011, 46, 4219-4226 and P. A. Wayne Methods for dilution antimicrobial tests for bacteria that grow aerobically. 2009.). Briefly, compounds were serially diluted and 100 μL of each dilution were added to the wells of a 96-well flat-bottomed microtiter plate in triplicate. After adding 100 μL of the bacterial cell suspension, the plates were incubated at 37° C. for 72 h. […] The MIC was considered to be bactericidal if the MBC was the same concentration or one concentration higher in the dilution series as the MIC, per Motyl, M.; Dorso, K.; Barrett, J.; Giacobbe, R. Basic microbiological techniques used in antibacterial drug discovery. Curr. Protoc. Pharmacol. 2006, Chapter 13.

[2] = test system: Staphylococcus aureus; assay: Minimum inhibitory concentration, S. aureus; assay type: cell-based, Staphylococcus aureus subsp. aureus ATCC 29213; conditions: Mueller-Hinton Broth, 37° C., 72 h
Procedure: as §1, §2, §3

[3] = test system: Escherichia coli; assay: Minimum inhibitory concentration, E. coli; assay type: cell-based, Escherichia coli ATCC 25922; conditions: Mueller-Hinton Broth, 37° C., 72 h
Procedure: as §1, §2, §3

[4] = test system: Pseudomonas aeruginosa; assay: Minimum inhibitory concentration, P. aeruginosa; assay type: cell-based, Pseudomonas aeruginosa ATCC 27853; conditions: Mueller-Hinton Broth, 37° C., 72 h
Procedure: as §1, §2, §3

[5] = test system: Streptococcus agalactiae; assay: Minimum inhibitory concentration, S. agalactiae; assay type: cell-based, Streptococcus agalactiae J48; conditions: Mueller-Hinton Broth, 37° C., 72 h
Procedure: as §1, §2, §3

[6] = Isothermal titration calorimetry: critical aggregation concentration and thermodynamics of aggregation; assay type: physicochemical
Procedure: Isothermal titration calorimetry (ITC) was used to determine the critical aggregation concentration (CAC) and the thermodynamic parameters at 37° C. associated with aggregate formation for each double-tailed amphiphile for the M-P and M-1 series, as shown in Table 1.
A Nano ITC was used to measure the heat change associated with the deaggregation of amphiphiles via power compensation. A concentrated aqueous solution of amphiphile (>>CAC) was titrated into a thermally controlled sample cell, initially containing pure water, in a series of discrete injections. Isothermal titration calorimetry was used to determine the critical aggregation concentration (CAC) and ΔHagg. Shown in FIG. 5 is the heat rate associated with each injection versus time for 9 (M-1,14,14). Shown in FIG. 6 is the integration of the heat per injection normalized by the number of moles of each injection versus the increasing concentration of amphiphile in the well. In FIG. 6, inset, CAC is determined by calculating the first derivative the heat curve.
During initial injections (Range I), measured heat changes are due to both the dilution of aggregates and deaggregation. This can be observed in the first 10 injections, where aggregates absorbed heat and disassociated into dissolved monomers. The heat change produced by each injection was approximately constant in this range. In Range II, injected aggregates don't fully dissociate, reducing the total absorbed heat for each subsequent injection. At concentrations well above the CAC (Range III), absorbed heat is attributed only to the dilution of aggregates and is approximately constant. […] CAC and thermodynamic data were not determined for the amphiphiles with the shortest tails [1 (M-P,8,8) and 6 (M-1,8,8)] because the heat evolved during injection was […] the threshold of the instrument.
The difference between the average heat of injections in Range I, representing the total heat due to the dilution of aggregates and deaggregation, and the average heat of injections in Range III, representing the heat due solely to the dilution of aggregates, gives the heat of deaggregation, ΔHdeagg. The ΔHdeagg for compound 9 (M-1,14,14) is 37 kJ/mol, corresponding to a heat of aggregate formation, ΔHagg, of −37 kJ/mol (ΔHagg=−ΔHdeagg).
The ΔGagg can be approximated for the aggregation of nonionic amphiphiles by the equation: ΔGagg=RT ln(CAC/55.5) (3)
where m is the concentration of counterions that associate with a aggregate and n is the number of monomers that associate to form an aggregate. […] BBA-Biomembranes. 2000, 1508, 69-85.)
The entropy of aggregation (ΔSagg) is dictated by a combination of entropic factors that favor or disfavor aggregate formation and can be approximated using the Gibbs-Helmholtz equation: ΔGagg=ΔHagg−TΔSagg (5)
CAC and ΔHagg were determined using a Nano-ITC (TA-Instruments). Prior to each experiment the sample cell was washed with dH2O (300 mL), ethanol (100 mL), dH2O (300 mL) and nanopure water (200 mL). Next, 950 μL of nanopure water was added to the sample cell. A concentrated aqueous solution (>>CAC) of amphiphile was prepared and equilibrated at 37° C. A 250 μL syringe was filled with the aqueous solution, and loaded into the Nano ITC. Multiple single injections in aliquots of 5 μL were injected into the sample cell with time intervals varying from 300 s to 1400 s. Samples were continuously stirred (300 rpm) throughout the titration. The Nano-Analyze program (TA-Instruments) was used to analyze the data. CAC and ΔHagg values reported are the average of two or more repeat experiments for each amphiphile.

[7] = test system: Enterococcus faecalis; assay: Minimum inhibitory concentration, E. faecalis; assay type: cell-based, Enterococcus faecalis ATCC 29212; conditions: Mueller-Hinton Broth, 37° C., 72 h
Procedure: as §1, §2, §3

[8] = Isothermal titration calorimetry: critical aggregation concentration and thermodynamics of aggregation; assay type: physicochemical; conditions: 37° C., single-tailed M-1,1,n series; for CAC: ITC
[9] = test system: Pseudomonas aeruginosa; conditions: literature comparison values; cited from earlier work
[10] = ITC, 37° C., pure water, double-tailed M-P and M-1 series

Structure (SMILES) | MIC B. cereus (G+) [1] [µM] | MIC S. aureus (G+) [2] [µM] | MIC E. coli (G−) [3] [µM] | MIC P. aeruginosa (G−) [4] [µM] | MIC S. agalactiae (G+) [5] [µM] | −TΔSmic ([6]; 37° C., Gibbs-Helmholtz equation, double-tailed series) [kcal/mol] | ΔGmic ([6]; 37° C., approximated with RT ln(CAC/55.5), double-tailed series) [kcal/mol] | CMC [6, 10] [mM] | ΔHmic [6, 10] [kcal/mol] | −TΔSagg term (sign, in words) ([6]; Table 1) | MIC E. faecalis (G+) [7] [µM] | ΔGagg [8] [kcal/mol] | −TΔSagg [8] [kcal/mol] | CAC [8] [mM] | ΔHagg ([6]; ITC, 37° C.) [kcal/mol] | MIC against P. aeruginosa (comparison drugs) [9] [µM]
CCCCCCCCCCCCCCCC[N+](C)(C)Cc1cc(C[N+](C)(C)C)cc(C[N+](C)(C)CCCCCCCCCCCCCCCC)c1.[Br-].[Br-].[Br-] [Compound 10] | 16 | 16 | 63 | >250 | 8 | -5.26 | -7.89 | 0.16 | -13.1 | positive | 32 | – | – | – | – | –
CCCCCCCCCCCCCC[N+](C)(C)Cc1cc(C[N+](C)(C)C)cc(C[N+](C)(C)C)c1.[Br-].[Br-].[Br-] [Compound S4] | 16 | 63 | 250 | >250 | 16 | – | – | – | – | – | 31 | -4.78 | -2.39 | 21 | -2.39 | –
CCCCCCCCCCCCCCCC[N+](C)(C)Cc1cc(C[N+](C)(C)C)cc(C[N+](C)(C)C)c1.[Br-].[Br-].[Br-] [Compound S5] | 4 | 31 | 31 | >250 | 4 | – | – | – | – | – | 8 | -5.26 | -2.03 | 9.2 | -3.35 | –
CCCCCCCCCCCCCCCCCC[N+](C)(C)Cc1cc(C[N+](C)(C)C)cc(C[N+](C)(C)C)c1.[Br-].[Br-].[Br-] [Compound S6] | 4 | 16 | 16 | 125 | 2 | – | – | – | – | – | 4 | -5.74 | -0.574 | 5.0 | -5.26 | –
CCCCCCCCCCCCCCCCCCCC[N+](C)(C)Cc1cc(C[N+](C)(C)C)cc(C[N+](C)(C)C)c1.[Br-].[Br-].[Br-] [Compound S7] | 4 | 16 | 31 | 250 | 4 | – | – | – | – | – | 4 | -6.21 | 0.382 | 2.0 | -6.69 | –
CCCCCCCCCCCCCCCCCCCCCC[N+](C)(C)Cc1cc(C[N+](C)(C)C)cc(C[N+](C)(C)C)c1.[Br-].[Br-].[Br-] [Compound S8] | >250 | >250 | 63 | >250 | >250 | – | – | – | – | – | >250 | -6.69 | 1.22 | 0.99 | -7.89 | –
NC[C@H]1O[C@H](O[C@H]2[C@H](O)[C@@H](O[C@H]3O[C@H](CO)[C@@H](O)[C@H](N)[C@H]3O)[C@H](N)C[C@@H]2N)[C@H](N)C[C@@H]1O [tobramycin] | – | – | – | – | – | – | – | – | – | – | – | – | – | – | – | 6.4 (≈ 2.99 µg/mL)
